The test system of experiment [1] is IFN-α. Nature of the experiment: Induction of interferon-α using fresh human whole blood (WB). The note with it: three donors, overnight incubation, response as % of 2 μM resiquimod control, read-out: mean pEC50 for IFN-α (converted). It is filed as cell-based. How it is done:
(§1) Assay for the Induction of Interferon-[…] and TNF-[…] Using Fresh Human Whole Blood (WB)
(§2) Compounds were prepared at 100× required concentration in DMSO in flat-bottom microtitre plates at a volume of 1.5 μL. Columns 1-10 contained a 1 in 4 serial dilution of the test compound. Included on each plate was a serial dilution of the TLR7/8 agonist resiquimod as a standard and Column 11 contained 1.5 μl of 200 μM resiquimod (giving a 2 μM final concentration, used to define the approximate maximal response to resiquimod). Each compound was assayed in duplicate for each donor.
(§3) Blood samples from three human donors were collected into sodium heparin (10 U/ml). 150 μl of whole Blood was dispensed into Col 1 to 11 of assay plates containing 1.5 μl of test compound or standard in DMSO. Plates were placed in an incubator overnight (37° C., 95% air, 5% CO2). Following the overnight incubation, plates were removed from the incubator & mixed on an orbital shaker for approximately 1 minute. 100 μl of 0.9% saline was added to each well and the plates mixed again on an orbital shaker. Plates were then centrifuged (2500 rpm, 10 mins), after which a sample of plasma was removed using a Biomek FX and assayed for both IFN-α and TNF-α using the MSD (Mesoscale Discovery) electrochemiluminescence assay platform. The IFN-α assay was carried out similarly to that described above. The TNF-α assay was carried out as per kit instructions (Cat No K111BHB).
(§4) Cytokine released was expressed as a percentage of the 2 μM resiquimod control (column 11). This percentage was plotted against compound concentration and the pEC50 for the response determined by non-linear least squares curve fitting. For the IFN-α responses, generally a 4 parameter logistic model was selected. For the TNF-α responses where a clear maximum response was obtained (i.e. a well defined plateau in the response was observed) then a 4 parameter model was generally used. If the upper asymptote of the curve wasn't well defined then the curve fitting was generally constrained to a maximal response of 100% (i.e. to the response to 2 μM resiquimod) or to the response of the highest concentration tested if this was greater than the resiquimod response. Some curves were bell shaped for one or both cytokines and the cytokine data on the down slope of the bell shaped response (i.e. concentrations above those giving the maximal response) were generally excluded from the fit, usually with the exception of the concentration immediately above the peak response. Curve fitting thus concentrated on the up slope of the dose response curve.

Experiment [2] deals with TNF-α. Nature of the experiment: Induction of TNF-α using fresh human whole blood (WB). It is filed as cell-based. The note with it: three donors, overnight incubation, response as % of 2 μM resiquimod control, read-out: mean pEC50 for TNF-α (converted). How it is done: as §1, §2, §3, §4

Counter-ions that a name gives are not always drawn. Where only a bound is given, the exact number is not on record here.

The values that follow come from patent US9907847B2, “Pyrrolopyrimidines as therapeutic agents for the treatment of diseases” (GlaxoSmithKline LLC, priority 2012, dated 2018).

As for `CCCCc1nc(N)c2[nH]cc(CCCCCCN3CCCCC3)c2n1` [Example 1, 2-Butyl-7-(6-(piperidin-1-yl)hexyl)-5H-pyrrolo[3,2-d]pyrimidin-4-amine formate], the EC50 in experiment [1] is not above 5.01 µM; in experiment [2], not below 5.01 µM.
Consider `CCCCc1nc(N)c2[nH]cc(CCCCCN3CCCCC3)c2n1` [Example 2, 2-Butyl-7-(5-(piperidin-1-yl)pentyl)-5H-pyrrolo[3,2-d]pyrimidin-4-amine], for which the EC50 in experiment [1] is not above 5.01 µM; in experiment [2], not below 5.01 µM.
Consider `CCCCc1nc(N)c2[nH]cc(CCCCN3CCCCC3)c2n1` [Example 3, 2-Butyl-7-(4-(piperidin-1-yl)butyl)-5H-pyrrolo[3,2-d]pyrimidin-4-amine], for which the EC50 was not above 5.01 µM in experiment [1] and not below 5.01 µM in experiment [2].
Take `CCOCc1nc(N)c2[nH]cc(CCCCCCN3CCCCC3)c2n1` [Example 4, 2-(Ethoxymethyl)-7-(6-(piperidin-1-yl)hexyl)-5H-pyrrolo[3,2-d]pyrimidin-4-amine]: the EC50 was not above 5.01 µM in experiment [1] and not below 5.01 µM in experiment [2].
As for `COCCc1nc(N)c2[nH]cc(CCCCCCN3CCCCC3)c2n1` [Example 5, 2-(2-Methoxyethyl)-7-(6-(piperidin-1-yl)hexyl)-5H-pyrrolo[3,2-d]pyrimidin-4-amine hydrochloride], the values for the EC50 in experiment [1] and in experiment [2] were not above 5.01 µM and not below 5.01 µM, respectively.
For the molecule `CCCCc1nc(N)c2[nH]c(C)c(CCCCCCN3CCCCC3)c2n1` [Example 6, 2-Butyl-6-methyl-7-(6-(piperidin-1-yl)hexyl)-5H-pyrrolo[3,2-d]pyrimidin-4-amine], the EC50 in experiment [1] is not above 5.01 µM; in experiment [2], not below 5.01 µM.
Take `CCCCc1nc(N)c2[nH]c(C)c(CCCCCN3CCCCC3)c2n1` [Example 7, 2-Butyl-6-methyl-7-(5-(piperidin-1-yl)pentyl)-5H-pyrrolo[3,2-d]pyrimidin-4-amine]: the EC50 in experiment [1] is not above 5.01 µM; in experiment [2] it was not below 5.01 µM.
The like results for `CCCCc1nc(N)c2[nH]c(C)c(CCCCN3CCCCC3)c2n1` [Example 8, 2-Butyl-6-methyl-7-(4-(piperidin-1-yl)butyl)-5H-pyrrolo[3,2-d]pyrimidin-4-amine] were, in that order, not above 5.01 µM and not below 5.01 µM.
As to `CCCCc1nc(N)c2[nH]cc(CCCCCN3CCCC3)c2n1` [Example 9, 2-Butyl-7-(5-(pyrrolidin-1-yl)pentyl)-5H-pyrrolo[3,2-d]pyrimidin-4-amine formate], the values for the EC50 in experiment [1] and in experiment [2] were not above 5.01 µM and not below 5.01 µM, respectively.
In the same order, the values of `CCCCc1nc(N)c2[nH]cc(CCCCCCN3CCCC3)c2n1` [Example 10, 2-Butyl-7-(6-(pyrrolidin-1-yl)hexyl)-5H-pyrrolo[3,2-d]pyrimidin-4-amine] are not above 5.01 µM and not below 5.01 µM.
For the molecule `CCCCCc1nc(N)c2[nH]cc(CCCCCCN3CCCCC3)c2n1` [Example 11, 2-Pentyl-7-(6-(piperidin-1-yl)hexyl)-5H-pyrrolo[3,2-d]pyrimidin-4-amine], the values for the EC50 in experiment [1] and in experiment [2] were not above 5.01 µM and not below 5.01 µM, respectively.
As to `CCCCc1nc(N)c2[nH]cc(CCCCCN3CCCCCC3)c2n1` [Example 12, 7-(5-(Azepan-1-yl)pentyl)-2-butyl-5H-pyrrolo[3,2-d]pyrimidin-4-amine], the results for the EC50 in experiment [1] and in experiment [2] were not above 5.01 µM and not below 5.01 µM, respectively.
For the molecule `CCCCc1nc(N)c2[nH]c(C)c(CCCCN3CCCCCC3)c2n1` [Example 13, 7-(4-(Azepan-1-yl)butyl)-2-butyl-6-methyl-5H-pyrrolo[3,2-d]pyrimidin-4-amine], the EC50 in experiment [1] is not above 5.01 µM; in experiment [2], not below 5.01 µM.
The like results for `CCCCc1nc(N)c2[nH]c(C)c(CCCCCCN3CCCC3)c2n1` [Example 14, 2-Butyl-6-methyl-7-(6-(pyrrolidin-1-yl)hexyl)-5H-pyrrolo[3,2-d]pyrimidin-4-amine] were, in that order, not above 5.01 µM and not below 5.01 µM.
Regarding `CCCCc1nc(N)c2[nH]c(C)c(CCCCCCN3CCC3)c2n1` [Example 15, 7-(6-(Azetidin-1-yl)hexyl)-2-butyl-6-methyl-5H-pyrrolo[3,2-d]pyrimidin-4-amine], the figures for the EC50 in experiment [1] and in experiment [2] were not above 5.01 µM and not below 5.01 µM, respectively.
As to `CCCCc1nc(N)c2[nH]c(C)c(CCCCCN3CCCC3)c2n1` [Example 16, 2-Butyl-6-methyl-7-(5-(pyrrolidin-1-yl)pentyl)-5H-pyrrolo[3,2-d]pyrimidin-4-amine], the EC50 in experiment [1] is not above 5.01 µM; in experiment [2], not below 5.01 µM.
`CCCCc1nc(N)c2[nH]cc(CCCCCN3CCC3)c2n1` [Example 17, 7-(5-(Azetidin-1-yl)pentyl)-2-butyl-5H-pyrrolo[3,2-d]pyrimidin-4-amine]: the EC50 in experiment [1] is not above 5.01 µM; in experiment [2] it was not below 5.01 µM.
Turning to `CCCCc1nc(N)c2[nH]c(C)c(CCCCCN3CCC3)c2n1` [Example 18, 7-(5-(Azetidin-1-yl)pentyl)-2-butyl-6-methyl-5H-pyrrolo[3,2-d]pyrimidin-4-amine], the EC50 in experiment [1] is not above 5.01 µM; in experiment [2] it was not below 5.01 µM.
Take `CCCCc1nc(N)c2[nH]c(C)c(CCCCN3CCCC3)c2n1` [Example 19, 2-Butyl-6-methyl-7-(4-(pyrrolidin-1-yl)butyl)-5H-pyrrolo[3,2-d]pyrimidin-4-amine]: the EC50 was not above 5.01 µM in experiment [1] and not below 5.01 µM in experiment [2].
The like results for `CCCCc1nc(N)c2[nH]cc(CCCCCN3CCC(F)(F)CC3)c2n1` [Example 20, 2-Butyl-7-(5-(4,4-difluoropiperidin-1-yl)pentyl)-5H-pyrrolo[3,2-d]pyrimidin-4-amine] were, in that order, not above 5.01 µM and not below 5.01 µM.
The like results for `CCCCc1nc(N)c2[nH]cc(CCCCCN3CCC(F)CC3)c2n1` [Example 21, 2-Butyl-7-(5-(4-fluoropiperidin-1-yl)pentyl)-5H-pyrrolo[3,2-d]pyrimidin-4-amine] were, in that order, not above 5.01 µM and not below 5.01 µM.
For the molecule `COCCc1nc(N)c2[nH]cc(CCCCCN3CCC(F)CC3)c2n1` [Example 22, 7-(5-(4-Fluoropiperidin-1-yl)pentyl)-2-(2-methoxyethyl)-5H-pyrrolo[3,2-d]pyrimidin-4-amine], the EC50 was not above 5.01 µM in experiment [1] and not below 5.01 µM in experiment [2].
As to `CCCCc1nc(N)c2[nH]cc(CCCCCN3CCC(O)CC3)c2n1` [Example 23, 1-(5-(4-Amino-2-butyl-5H-pyrrolo[3,2-d]pyrimidin-7-yl)pentyl)piperidin-4-ol], the EC50 in experiment [1] is not above 5.01 µM; in experiment [2] it was not below 5.01 µM.
`CCCCc1nc(N)c2[nH]cc(CCCCCN3CC[C@@H](F)C3)c2n1` [Example 24, (R)-2-Butyl-7-(5-(3-fluoropyrrolidin-1-yl)pentyl)-5H-pyrrolo[3,2-d]pyrimidin-4-amine]: the EC50 in experiment [1] was not above 5.01 µM; in experiment [2], not below 5.01 µM.
Regarding `CCCCc1nc(N)c2[nH]cc(CCCCCN3CC[C@H](F)C3)c2n1` [Example 25, (S)-2-Butyl-7-(5-(3-fluoropyrrolidin-1-yl)pentyl)-5H-pyrrolo[3,2-d]pyrimidin-4-amine], the EC50 was not above 5.01 µM in experiment [1] and not below 5.01 µM in experiment [2].
In the same order, the values of `COCCc1nc(N)c2[nH]cc(CCCCCN3CC[C@@H](F)C3)c2n1` [Example 26, (R)-7-(5-(3-Fluoropyrrolidin-1-yl)pentyl)-2-(2-methoxyethyl)-5H-pyrrolo[3,2-d]pyrimidin-4-amine formate] are not above 5.01 µM and not below 5.01 µM.
